# Measurements published in PubChem BioAssay AID1963834 (Molecular Pharmacology Branch, DTP, NCI, 2024).
# pIC50: −log10 of the molar value.
# Tested on: 873145-292-R-J1-PDC complex spheroid viability
# Test: Anticancer human tumor 873145-292-R-J1-PDC patient-derived renal clear cell carcinoma cell line growth inhibition [POLQ]
# Conditions: for pIC50: curve of first compound; for viability, T/C: stronger effect = lower value
# How it was run: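 Patient-derived tumour cells were co-cultured with HUVEC and mesenchymal stem cells as multicellular spheroids at 37 °C. They were treated with POLQ inhibitors (novobiocin, ART-558, RP6685) alone or combined with other agents. Top concentrations were at or near clinical Cmax (otherwise 10 microM; SN-38 at 1 microM), decreasing in half-log steps.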
# 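Note: spheroids exposed to compounds for 7 days before viability readout.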
# 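Throughout, for viability, T/C: luminescence signal used as surrogate for viable cell content; 100% = DMSO vehicle control viability.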
structure (smiles),measurement,setting,value
O=C(Nc1ccc(O)c(NS(=O)(=O)c2ccc(F)cc2)c1)c1ccc(-c2ccccc2)cc1 + COC1C(OC(N)=O)C(O)C(Oc2ccc3c(O)c(NC(=O)c4ccc(O)c(CC=C(C)C)c4)c(=O)oc3c2C)OC1(C)C,pIC50,second compound 0.0316 µM,< 5.00
same,pIC50,second compound 0.1 µM,< 5.00
same,pIC50,second compound 0.316 µM,< 5.00
same,pIC50,second compound 1 µM,< 5.00
same,pIC50,second compound 3.16 µM,< 5.00
same,pIC50,second compound 10 µM,< 5.00
same,"viability, T/C","second compound 0.0316 µM, first compound 0.0316 µM",113%
same,"viability, T/C","second compound 0.0316 µM, first compound 0.1 µM",99.8%
same,"viability, T/C","second compound 0.0316 µM, first compound 0.316 µM",95.7%
same,"viability, T/C","second compound 0.0316 µM, first compound 1 µM",101%
same,"viability, T/C","second compound 0.0316 µM, first compound 3.16 µM",98.5%
same,"viability, T/C","second compound 0.0316 µM, first compound 10 µM",101%
same,"viability, T/C","second compound 0.1 µM, first compound 0.0316 µM",99.9%
same,"viability, T/C","second compound 0.1 µM, first compound 0.1 µM",106%
same,"viability, T/C","second compound 0.1 µM, first compound 0.316 µM",88.9%
same,"viability, T/C","second compound 0.1 µM, first compound 1 µM",94.8%
same,"viability, T/C","second compound 0.1 µM, first compound 3.16 µM",97.6%
same,"viability, T/C","second compound 0.1 µM, first compound 10 µM",101%
same,"viability, T/C","second compound 0.316 µM, first compound 0.0316 µM",105%
same,"viability, T/C","second compound 0.316 µM, first compound 0.1 µM",92.7%
same,"viability, T/C","second compound 0.316 µM, first compound 0.316 µM",96.2%
same,"viability, T/C","second compound 0.316 µM, first compound 1 µM",98.6%
same,"viability, T/C","second compound 0.316 µM, first compound 3.16 µM",110%
same,"viability, T/C","second compound 0.316 µM, first compound 10 µM",98.1%
same,"viability, T/C","second compound 1 µM, first compound 0.0316 µM",106%
same,"viability, T/C","second compound 1 µM, first compound 0.1 µM",103%
same,"viability, T/C","second compound 1 µM, first compound 0.316 µM",91.6%
same,"viability, T/C","second compound 1 µM, first compound 1 µM",97.2%
same,"viability, T/C","second compound 1 µM, first compound 3.16 µM",104%
same,"viability, T/C","second compound 1 µM, first compound 10 µM",91.1%
same,"viability, T/C","second compound 3.16 µM, first compound 0.0316 µM",97.3%
same,"viability, T/C","second compound 3.16 µM, first compound 0.1 µM",94.8%
same,"viability, T/C","second compound 3.16 µM, first compound 0.316 µM",102%
same,"viability, T/C","second compound 3.16 µM, first compound 1 µM",92.9%
same,"viability, T/C","second compound 3.16 µM, first compound 3.16 µM",99.2%
same,"viability, T/C","second compound 3.16 µM, first compound 10 µM",109%
same,"viability, T/C","second compound 10 µM, first compound 0.0316 µM",105%
same,"viability, T/C","second compound 10 µM, first compound 0.1 µM",95.2%
same,"viability, T/C","second compound 10 µM, first compound 0.316 µM",92.5%
same,"viability, T/C","second compound 10 µM, first compound 1 µM",100%
same,"viability, T/C","second compound 10 µM, first compound 3.16 µM",108%
same,"viability, T/C","second compound 10 µM, first compound 10 µM",108%
